This is an account of results in ChEMBL document CHEMBL2311503, “Synthesis and anti-angiogenic activity of benzothiazole, benzimidazole containing phthalimide derivatives” (Bioorg Med Chem Lett, 2013).

Active and inactive are the calls of the source. The rule behind the calls is not given here.

For the test, the species on record is Gallus gallus. Briefly: Antiangiogenic activity in chicken embryo chorioallantoic membrane assessed as inhibition of growth of new vessels proximity at 10 uM after 6 hrs by CAM assay. In kind it is functional, tissue-based.
With `O=C1c2ccccc2C(=O)N1c1nc2ccccc2s1`, the inhibition entry was “Active”. The entry for `O=C1c2ccccc2C(=O)N1c1ccc2ncsc2c1` is “Active”; for `O=C1c2ccccc2C(=O)N1c1nc2ccccc2[nH]1` it is “Active”. Consider `O=C1c2ccccc2C(=O)N1c1cccc2nsnc12`, for which the inhibition result is “Active”. The entry for `Cc1ccc2c(c1)C(=O)N(c1nc3ccccc3s1)C2=O` is “Active”.
